Here are results for 1 substance from publication PMC5683375, “Vasculotide reduces pulmonary hyperpermeability in experimental pneumococcal pneumonia” (Critical Care, 2017).

“Also recorded” adds a separate entry of the source.

The subject of one series is Streptococcus pneumoniae. As to the kind of experiment: Bacterial growth in vitro (optical density). It is filed as cell-based, Streptococcus pneumoniae serotype 3 (NCTC7978). The following applies: VT 5 µg/ml, log-phase culture, THY media, 37°C, 5% CO2; OD every 30 min for 5 hours; preliminary experiment. The procedure:
experiment, we investigated if Vasculotide (VT) has a direct effect on the bacterial growth of Streptococcus pneumoniae. Capsulated S. pneumoniae (S. pn.) serotype 3 (NCTC7978) was cultured on Columbia blood agar + 5% sheep blood for 8 h. Single colonies were transferred into THY media to yield OD600 = 0.03-0.04. Liquid cultures were incubated at 37°C and 5% CO2 for 2.5-4 h until the bacteria reached a phase of logarithmic growth (OD600 = 0.3-0.4).
30 min later, log-phase bacterial cultures were treated with VT (5 µg/ml) or PBS. Optical density was measured every 30 min for further 5 hours. Individual time-proliferation curves

For series [1], the system named is murine lung endothelial cells (mLEC). As to the kind of experiment: Transcellular electrical resistance (ECIS) of murine lung endothelial cells. Particulars: VT 2, 10, 50 ng/ml, 30 minutes pretreatment; PLY 0.75 μg/ml, 3 h; n = 4-7.
Protocol: Briefly, mice were killed by an overdose of ketamine/xylazine. Lungs of four mice were pooled, minced, and digested by dispase (20 ml, 5 U/ml; BD Biosciences, Heidelberg, Germany) and DNase (20 ml, 0.5 mg/ml; AppliChem GmbH, Darmstadt, Germany). The homogenate was filtered, collected by centrifugation (300 × g), and washed twice, and the resulting cell suspension was incubated with antimouse VE-cadherin antibody (rat antimouse CD 144; BD Pharmingen, San Diego, CA, USA)-coated magnetic beads (sheep antirat IgG DynaBeads; Invitrogen GmbH, Karlsruhe, Germany) for positive isolation with the DynaMag-Spin magnet system (Invitrogen). The isolated cells were resuspended in Endothelial Cell Growth Medium MV2 (PromoCell), seeded onto fibronectin-coated (Sigma-Aldrich) culture dishes (diameter 35 mm), and grown to a confluent monolayer in 3–4 days. Then, cells were split after trypsinization [37], seeded and grown to confluence on fibronectin-coated evaporated gold microelectrodes (eight-well array with ten electrodes per well; ibidi GmbH, Martinsried, Germany) connected to an electric cell-substrate impedance sensing (ECIS) system (Applied Biophysics, Troy, NY, USA) [38] for continuous monitoring of transcellular electrical resistance (TER). Cells were pretreated with VT (2, 10, and 50 ng/ml) or PBS for 30 minutes and then stimulated with PLY (0.75 μg/ml) or PBS for 3 h.
Series [2] relates to acute skin ionizing radiation in mice. The following applies: cited from earlier work.
Series [3] concerns Streptococcus pneumoniae-infected mice. As to the kind of experiment: Lung histology (edema formation, lung injury) in Streptococcus pneumoniae-infected mice. It is filed as in vivo, mouse (C57BL/6 N). The procedure:
Identical experiments were performed separately for histological analyses of the lungs. Mice were anesthetized 24 h or 48 h p.i. […] After ligation of the trachea, mouse lungs were removed and immediately immersion-fixed in 4% buffered formalin, embedded in paraffin, cut into 2-μm-thick sections, and stained with hematoxylin and eosin as described elsewhere. The degree of edema formation was assessed semiquantitatively (0 = no edema, 1 = minimal edema, 2 = mild edema, 3 = moderate edema, 4 = severe edema). Three evenly distributed sections per lung were microscopically evaluated to assess edema formation.

Series [4] is described as follows: Body weight and temperature of Streptococcus pneumoniae-infected mice. The following applies: VT i.v. (500 ng in Figure S2), 46 h p.i. in Figure S2, vs infected, PBS-treated.
The subject of another series is Tie2. As to the kind of experiment: Tie2 phosphorylation in mouse primary lung microvascular endothelial cells (phospho-Tie2 ELISA). The following applies: VT 1, 10, 100, 1000 ng/ml, 15 minutes, serum-containing media; phospho-Tie2 and total Tie2 ELISA; n = 3-6. The format is cell-based. The procedure:
C57BL/6 mouse primary lung microvascular endothelial cells (Cell Biologics, Chicago, IL, USA) were grown in endothelial cell medium with a kit (Cell Biologics) in 20% O2/5% CO2 in a 37 °C humidified chamber and split 1:2 once reaching 90–95% confluency. To examine the activation of Tie2 by VT in mouse primary lung microvascular endothelial cells, 95–100% confluent cells were stimulated with VT (1, 10, 100, and 1000 ng/ml) in serum-containing media for 15 minutes. Human Ang-1 (R&D Systems) was used as a positive control. VT was synthesized, purified, and validated as described before. Cell lysates were collected using lysis buffer recommended in the mouse phospho-Tie-2 enzyme-linked immunosorbent assay (ELISA) kit (R&D Systems); tyrosine-phosphorylated Tie2 and total Tie2 were measured using ELISA kits (mouse phospho-Tie2 and total-Tie2 ELISA kits; R&D Systems). Three to six independent experiments were analyzed.
Saturation binding data (Fig. 1a–c) are presented as mean ± SEM and were calculated using normalized one-site specific binding and nonlinear regression. For the Tie2 phosphorylation analysis (Fig. 1d), one-way analysis of variance (with Dunnett’s post hoc multiple comparisons test) was used to compare treatment groups with the vehicle-treated group. All other experimental data are expressed as mean, mean + SEM, or mean ± SEM. […]

The subject of series [5] is human pulmonary microvascular endothelial cells (hPMVEC). As to the kind of experiment: Immunofluorescence staining (VE-cadherin, actin) of human pulmonary microvascular endothelial cells. The following applies: VT 300 ng/ml. It is filed as cell-based. The protocol: Human pulmonary microvascular endothelial cells (hPMVEC; PromoCell, Heidelberg, Germany), used at passages 4–6, were grown to confluence on glass slides, incubated with VT (300 ng/ml) or sterile PBS as a control for 90 minutes and then stimulated with LPS (0.1 μg/ml) from Escherichia coli (Sigma-Aldrich, Steinheim, Germany), PLY (0.25, 0.5, 0.75 μg/ml), or PBS. After 30 minutes, cells were fixed in 3% formalin, and the […] vascular endothelial (VE)-cadherin (1:400, goat antihuman VE-cadherin; Santa Cruz Biotechnology, Santa Cruz, CA, USA; secondary antibody 1:8000, Alexa Fluor 488 F(ab′)2 rabbit antigoat IgG (H + L), Invitrogen, Darmstadt, Germany) and actin fibers (1:2000; phalloidin Alexa 546-labeled; Invitrogen) were stained to evaluate cell morphology. 4′,6-diamidino-2-phenylindole staining (Sigma-Aldrich) was used to visualize cell nuclei. The immunofluorescence of the cells was analyzed by confocal microscopy using an LSM 780 microscope with ZEN 2011 software (objective: Plan Apochromat × 63/1.40 oil; Carl Zeiss Microscopy, Jena, Germany).

A further series deals with murine endotoxemia. Particulars: cited from earlier work.
The test system of series [6] is Streptococcus pneumoniae-infected mice. As to the kind of experiment: BALF leukocyte recruitment (FACS) in Streptococcus pneumoniae-infected mice. The following applies: VT 500 ng i.v., 24 h and 48 h p.i., n = 8.
Protocol: For all experiments, female C57BL/6 N mice (8 to 10 weeks old, weighing 18 to 20 g; Charles River Laboratories, Sulzfeld, Germany) were used. Animals were housed under specific pathogen-free conditions under a 12–h/12-h light/dark cycle with free access to food and water.
Mice were anesthetized with ketamine (80 mg/kg) and xylazine (25 mg/kg) and transnasally inoculated with 5 × 10^6 colony-forming units (CFU) of S. pneumoniae (NCTC7978) in 20 μl of sterile PBS as described before [35]. Sham-infected control mice received 20 μl of sterile PBS. After 22 h, 34 h, and 46 h, body weight and rectal temperature were measured, and different dosages of VT (100, 200, or 500 ng in 100 μl of PBS) or PBS were intravenously injected into the tail vein. Twenty-four or forty-eight hours postinfection (p.i.), mice were anesthetized (160 mg/kg ketamine and 75 mg/kg xylazine) and exsanguinated. […] Subsequently, lungs were flushed, and BAL was performed. To determine permeability, HSA (1 mg/75 μl) was intravenously infused 1 h before lung preparation, and the BALF/plasma ratio was calculated as described elsewhere [35]. […] Cytokines from BALF were measured with a multiplex assay (ProcartaPlex; eBioscience), and plasma levels of interleukin (IL)-6 (BD Biosciences) and KC (keratinocyte chemoattractant; R&D Systems) were quantified by ELISA.

For the substance Vasculotide [VT], the “direct antimicrobial activity / bacterial growth” value in the series with Streptococcus pneumoniae is on record as “did not affect bacterial growth in vitro; also recorded: failed to show a direct antimicrobial activity”. In series [1], the “PLY-induced TER decrease” value is “attenuated the PLY-induced TER decrease in a dose-dependent manner”. The “acute skin ionizing radiation” value in series [2] is given as “protective effect”. Besides, in series [3] (VT 500 ng i.v., 24 h and 48 h p.i., n = 3-4, vs PBS), the “lung injury (histology)” value is on record as “reduced lung injury”. Also, the “perivascular edema formation, 24 h p.i.” value in series [3] (VT 500 ng i.v., 24 h p.i., n = 3-4, vs PBS) is on record as “considerably reduced”. Further, the “neutrophil infiltration of perivascular spaces, 48 h p.i.” value in series [3] (VT 500 ng i.v., 48 h p.i., n = 3-4) is “without differences between the VT-treated and untreated infected groups”. The “alveolar edema formation, 48 h p.i.” value in series [3] (VT 500 ng i.v., 48 h p.i., n = 3-4, vs PBS) is given as “diminished; also recorded: almost completely abolished (three of four mice); also recorded: nearly devoid of the additional massive alveolar edema formation”. Moreover, in [3] (VT 500 ng i.v., 48 h p.i., n = 3-4, vs untreated (PBS)), the “perivascular edema, 48 h p.i.” value is on record as “less perivascular edema than the untreated group”. Also, the “edema or other pathological changes in perivascular spaces, sham-infected” value in series [3] (sham-infected groups, VT 500 ng i.v. or PBS, 24 h and 48 h p.i.) is “no edema formation or other pathological changes”. The body weight result in [4] was “did not influence; also recorded: not affected”. Moreover, the body temperature entry in series [4] (rectal) is on record as “did not influence; also recorded: not affected”. Besides, the Tie2 phosphorylation result in the series with Tie2 is reported as “resulted in Tie2 phosphorylation in a dose-dependent manner; also recorded: dose-dependent phosphorylation of Tie2”. In addition, the “monolayer stabilization (gap formation, stress fibers, cell loss) after LPS or PLY” value in series [5] (90 minutes pretreatment, LPS 0.1 μg/ml or PLY 0.25, 0.5, 0.75 μg/ml for 30 minutes, three independent experiments) is “stabilized cell monolayers, protected from gap formation, and reduced stress fibers as well as cell loss; also recorded: stabilized the cell monolayer, avoided gap formation, and reduced stress fibers and cell loss from culture dishes”. Also, the “effect on unstimulated hPMVEC monolayer” value in series [5] (90 minutes, no LPS or PLY) is “no effect of VT pretreatment was observed; also recorded: intact monolayers with tight intercellular contacts and thin actin fibers”. Further, in the series with murine endotoxemia, the “endotoxemia-induced lung vascular leakage” value was “prevent endotoxemia-induced lung vascular leakage”. The “protective effect in murine endotoxemia” value in the series with murine endotoxemia (endotoxemia) is “protective effect”. Moreover, the “pulmonary leukocyte recruitment (BALF)” value in series [6] was “did not significantly reduce; also recorded: not significantly affected; also recorded: not significantly reduced”.
